In ChEMBL document CHEMBL4371063, “Identification of 2-(2'-fluoro-[1,1'-biphenyl]-2-yl)acetamide as a Sodium Valproate-like broad spectrum anti-epileptic drug candidate” (Bioorg Med Chem Lett, 2019):
Calls of active or inactive are those of the source.

Legend:
Rattus norvegicus [1] = assay: Anticonvulsant activity in amygdala kindling rat model assessed as change in after discharge threshold at 600 mg/kg, po relative to control; type: functional
Rattus norvegicus [2] = assay: Anticonvulsant activity in amygdala kindling rat model assessed as change in after discharge duration at 600 mg/kg, po (reference value: -5.5%); type: functional
Rattus norvegicus [3] = assay: Anticonvulsant activity in amygdala kindling rat model assessed as change in after discharge duration at 300 mg/kg, po (reference value: -5.5%); type: functional
Rattus norvegicus [4] = assay: Anticonvulsant activity in amygdala kindling rat model assessed as change in after discharge threshold at 300 mg/kg, po relative to control; type: functional
Mus musculus [5] = assay: Anticonvulsant activity in po dosed 6-Hz induced seizure mouse model; type: functional
[6] = Neurotoxicity in po dosed mouse by rotarod test; type: toxicity, organism-based; details: in vivo
Mus musculus [7] = assay: Anticonvulsant activity in po dosed subcutaneous pentylenetetrazole-induced seizure mouse model assessed as reduction in convulsions; type: functional
Mus musculus [8] = assay: Anticonvulsant activity in po dosed maximal electroshock induced seizure mouse model assessed as reduction in convulsions; type: functional
Mus musculus [9] = assay: Anticonvulsant activity in maximal electroshock induced seizure mouse model assessed as reduction in convulsions at 100 mg/kg, po; type: functional, organism-based
Mus musculus [10] = assay: Anticonvulsant activity in subcutaneous pentylenetetrazole-induced seizure mouse model assessed as reduction in convulsions at 25 mg/kg, po; type: functional, organism-based
Mus musculus [11] = assay: Anticonvulsant activity in maximal electroshock induced seizure mouse model assessed as reduction in convulsions at 50 mg/kg, po; type: functional, organism-based
Mus musculus [12] = assay: Anticonvulsant activity in subcutaneous pentylenetetrazole-induced seizure mouse model assessed as reduction in convulsions at 100 mg/kg, po; type: functional, organism-based
Mus musculus [13] = assay: Anticonvulsant activity in subcutaneous pentylenetetrazole-induced seizure mouse model assessed as reduction in convulsions at 50 mg/kg, po; type: functional, organism-based
Mus musculus [14] = assay: Anticonvulsant activity in maximal electroshock induced seizure mouse model assessed as reduction in convulsions at 25 mg/kg, po; type: functional, organism-based
[15] = Therapeutic index, ratio of TD50 for neurotoxicity in po dosed mouse to ED50 for po dosed 6-Hz induced seizure mouse model; type: toxicity, organism-based; details: in vivo, read-out: Ratio TD50/ED50
[16] = Stability in human hepatic microsomes assessed as parent compound remaining after 30 mins in presence of NADPH; type: ADME, Microsome; details: liver microsomes, read-out: Stability
Rattus norvegicus [17] = assay: Anticonvulsant activity in amygdala kindling rat model assessed as change in after discharge duration at 50 mg/kg, po (reference value: -5.5%); type: functional
[18] = biological target: T1, GABA-A receptor; anion channel (Homo sapiens) (UniProt P14867+P47870+P18507+P28472+P48169+Q99928+Q9UN88+P34903+O00591+O14764+Q8N1C3+P18505+P78334+P47869+P31644+Q16445); assay: Displacement of [3H]TBOB from GABAA receptor (unknown origin) at 30 uM; type: protein-complex assay
[19] = biological target: T1, GABA-A receptor; anion channel (Homo sapiens); assay: Displacement of [3H]muscimol from GABAA receptor (unknown origin) at 30 uM; type: protein-complex assay
[20] = Stability in rat hepatic microsomes assessed as parent compound remaining after 30 mins in presence of NADPH; type: ADME, Microsome; details: liver microsomes, read-out: Stability
[21] = biological target: T2, GABA-A receptor; anion channel (Rattus norvegicus) (UniProt O09028+P15431+P18506+P18508+P19969+P20236+P23574+P23576+P28471+P28473+P30191+P62813+P63079+P63138+Q91ZM7+Q9ES14); assay: Displacement of [3H]flunitrazepam from GABAA receptor in Sprague-Dawley rat cerebral cortex at 30 uM after 60 mins by scintillation counting method
[22] = biological target: T1, GABA-A receptor; anion channel (Homo sapiens); assay: Displacement of [3H]Ro15-1788 from GABAA receptor (unknown origin) at 30 uM; type: protein-complex assay
Rattus norvegicus [23] = assay: Anticonvulsant activity in amygdala kindling rat model assessed as change in after discharge duration at 100 mg/kg, po (reference value: -5.5%); type: functional
Rattus norvegicus [24] = assay: Anticonvulsant activity in amygdala kindling rat model assessed as change in after discharge threshold at 100 mg/kg, po relative to control; type: functional
[25] = biological target: T2, GABA-A receptor; anion channel (Rattus norvegicus); assay: Displacement of […] from GABAA receptor in Sprague-Dawley rat cerebral cortex at 30 uM by scintillation counting method
[26] = Therapeutic index, ratio of TD50 for neurotoxicity in po dosed mouse to ED50 for po dosed maximal electroshock induced seizure mouse model; type: toxicity, organism-based; details: in vivo, read-out: Ratio TD50/ED50
Rattus norvegicus [27] = assay: Anticonvulsant activity in amygdala kindling rat model assessed as change in after discharge threshold at 50 mg/kg, po relative to control; type: functional

CCCC(CCC)C(=O)[O-].[Na+] [VALPROATE SODIUM]
Activity (Rattus norvegicus [1]): 81.3%
Activity (Rattus norvegicus [2]): -22.5%
Activity (Rattus norvegicus [3]): 11.1%
Activity (Rattus norvegicus [4]): -5.4%
ED50 (Mus musculus [5]): 343 mg/kg
TD50 [6]: 396 mg/kg
ED50 (Mus musculus [7]): 336 mg/kg
ED50 (Mus musculus [8]): 309 mg/kg

NC(=O)Cc1cccc(F)c1-c1ccccc1F
Activity (Mus musculus [9]): Active
Activity (Mus musculus [10]): inactive
Activity (Mus musculus [11]): Active

NC(=O)Cc1ccccc1-c1ccc(F)cc1F
Activity (Mus musculus [9]): Active

N#Cc1ccccc1-c1ccccc1CC(N)=O
Activity (Mus musculus [12]): inactive

NC(=O)Cc1ccccc1-c1ccccc1Cl
Activity (Mus musculus [9]): Active
Activity (Mus musculus [13]): Active
Activity (Mus musculus [12]): Active
Activity (Mus musculus [10]): inactive
Activity (Mus musculus [11]): Active

COc1ccccc1-c1ccccc1CC(N)=O
Activity (Mus musculus [11]): inactive

O=C1CCCN1c1ccccc1-c1ccccc1F
Activity (Mus musculus [9]): Active
Activity (Mus musculus [12]): inactive

NC(=O)Cc1ncccc1-c1ccccc1F
Activity (Mus musculus [9]): Active

NC(=O)Cc1ccccc1-c1ccncc1F
Activity (Mus musculus [9]): inactive

NC(=O)Cc1cccnc1-c1ccccc1F
Activity (Mus musculus [9]): inactive

CNS(=O)(=O)c1ccccc1-c1ccccc1F
Activity (Mus musculus [14]): Active
Activity (Mus musculus [9]): Active
Activity (Mus musculus [13]): Active
Activity (Mus musculus [12]): Active
Activity (Mus musculus [11]): Active

NC(=O)Cc1cnccc1-c1ccccc1F
Activity (Mus musculus [9]): inactive
Activity (Mus musculus [12]): inactive

O=C1NC(=O)C(c2ccccc2-c2ccccc2F)N1 (centres undefined)
Activity (Mus musculus [9]): Active
Activity (Mus musculus [12]): inactive

NC(=O)Cc1c(F)cccc1-c1ccccc1F
Activity (Mus musculus [9]): Active
Activity (Mus musculus [11]): Active

NC(=O)Cc1cc(F)ccc1-c1ccccc1F
Activity (Mus musculus [14]): inactive
Activity (Mus musculus [9]): Active
Activity (Mus musculus [12]): Active
Activity (Mus musculus [10]): inactive

NC(=O)c1ccccc1-c1ccccc1F
Activity (Mus musculus [14]): Active
Activity (Mus musculus [9]): Active
Activity (Mus musculus [11]): Active

O=C(O)Cc1ccccc1-c1ccccc1F
Activity (Mus musculus [9]): inactive
Activity (Mus musculus [12]): inactive

NC(=O)Cc1ccccc1-c1ccccc1F
selectivity ratio [15]: 2.3
Activity (Mus musculus [9]): Active
remaining at 0.5 h [16]: > 95%
Activity (Rattus norvegicus [17]): -22.9%
inhibition [18]: inactive
inhibition [19]: inactive
remaining at 0.5 h [20]: > 95%
inhibition [21]: inactive
inhibition [22]: inactive
Activity (Rattus norvegicus [23]): -22.9%
Activity (Rattus norvegicus [24]): 80.1%
inhibition [25]: inactive
ED50 (Mus musculus [5]): 56 mg/kg
Activity (Mus musculus [11]): Active
TD50 [6]: 129 mg/kg
ED50 (Mus musculus [7]): 27 mg/kg
selectivity ratio [26]: 4.8
Activity (Rattus norvegicus [27]): 75.9%
ED50 (Mus musculus [8]): 27 mg/kg

NC(=O)Cc1ccccc1-c1ccccc1C(F)(F)F
Activity (Mus musculus [9]): Active
Activity (Mus musculus [13]): inactive
Activity (Mus musculus [11]): inactive

NC(=O)Cc1ccccc1-c1cc(F)ccc1F
Activity (Mus musculus [14]): inactive
Activity (Mus musculus [9]): Active
Activity (Mus musculus [12]): Active
Activity (Mus musculus [10]): inactive
Activity (Mus musculus [11]): Active

NC(=O)Cc1ccc(F)cc1-c1ccccc1F
Activity (Mus musculus [14]): inactive
Activity (Mus musculus [9]): Active
Activity (Mus musculus [11]): Active

NC(=O)Cc1ccccc1-c1c(F)cccc1F
Activity (Mus musculus [14]): Active
Activity (Mus musculus [9]): Active
Activity (Mus musculus [12]): Active
Activity (Mus musculus [10]): inactive
Activity (Mus musculus [11]): Active
